This note sets out measurements from PubChem BioAssay (NCI).

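Each compound was tested at five concentrations against cells in 96-well plates for 48 hours. At the TGI there is no net growth.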 Where only a bound is given, the exact number is not on record here.

One assay relates to DMS 273 small cell lung. In words: growth of human tumour cells (NCI), 48 h.
A further assay concerns RXF-631 renal. Description: growth of human tumour cells (NCI), 48 h.

Turning to `OC12c3ccccc3C1CCCCC2N1CCCC1` (stereo not given), the TGI in the assay on DMS 273 small cell lung was > 100 µM. Still for that read-out and setting: then `CC(C)(O)C(O)COc1c2c(cc3oc(=O)ccc13)OCO2` (stereo not given), with > 100 µM. In the case of `COc1ccc(C(c2ccccc2)(c2ccc(OC)cc2)N2C(=O)NC3C(CCCCC(=O)NCCCCCCOP(OCCC#N)N(C(C)C)C(C)C)SCC32)cc1` (stereo not given), the TGI with RXF-631 renal came to 17.7 µM; with DMS 273 small cell lung, 25.3 µM.

Regarding `COc1cc(/C=C2\C(=O)N(C(=O)Cc3ccccc3)N=C2C)cc(OC)c1OC`, the TGI in the assay with DMS 273 small cell lung was > 100 µM. With `Cc1nc2sccn2c1C(=O)NN`, the TGI with RXF-631 renal and with DMS 273 small cell lung was > 100 µM each time. As to `COc1ccc(CNc2cnc3cc(N)ccc3n2)cc1`, the TGI with DMS 273 small cell lung is > 100 µM. As for `C=C(C)C12CC3CC(/C(=N/O)C(C1)/C3=N\O)[C@@]2(C)O` (stereo not given in full), in the assay on DMS 273 small cell lung, the TGI is > 100 µM.

The compound `COc1cccc2c1c1ccc3c(c1n2C)C(=O)C=CC3=O` gave a TGI with DMS 273 small cell lung of 32.2 µM.
